± gives the expanded uncertainty stated by the source.
Details: 101.33 kPa, Liquid, Vibrating tube method

| mass density (293.15 K) | mass density (303.15 K) | mass density (313.15 K) | mass density (323.15 K) | SMILES |
| --- | --- | --- | --- | --- |
| 1038.3 ± 2.2 kg/m3 | 1032.1 ± 2.2 kg/m3 | 1025.7 ± 2.2 kg/m3 | 1019.7 ± 2.2 kg/m3 | CCCC[n+]1ccc(C)cc1.N#CC(=C=[N-])C#N [1-butyl-4-methylpyridinium tricyanomethanide] |
| 1008.9 ± 2.2 kg/m3 | 1003 ± 2.1 kg/m3 | 997.3 ± 2.1 kg/m3 | 991.4 ± 2.1 kg/m3 | CCCC[N+]1(C)CCCC1.N#CC(=C=[N-])C#N [1-butyl-1-methylpyrrolidinium tricyanomethanide] |

From the NIST ThermoML archive (doi:10.1016/j.fluid.2018.04.020)
